Test results reported in patent US6645959B1, “Method for treating postoperative ileus” (Warner-Lambert Company, priority 2000, dated 2003).
Counter-ions that a name gives are not always drawn.

Tests used:
[1] = test system: bone marrow in dogs; assay: 2- and 13-week oral toxicity studies in dogs; format: in vivo
[2] = Pharmacokinetics in healthy subjects (Phase 1)
[3] = test system: rabbits; assay: Teratogenicity in rabbits; format: in vivo
[4] = test system: dogs with heart failure induced by rapid right ventricular pacing; assay: Heart failure induced by rapid right ventricular pacing in dogs; format: in vivo; conditions: IV 0.1 mg/kg
[5] = test system: female rats; conditions: 13-week oral study, all doses
[6] = test system: AVP-induced pressor response (V1A antagonism); assay: Antagonism of AVP-induced pressor response in dogs (IV); format: in vivo
[7] = test system: AVP-induced platelet aggregation (V1A antagonist activity); assay: AVP-induced platelet aggregation in Phase 1 subjects; format: in vivo, human; conditions: subjects at 20 mg/day orally or 2.5 mg IV
[8] = test system: AVP-induced pressor response (V1A antagonism); assay: Antagonism of AVP-induced pressor response in rats (oral); format: in vivo; conditions: given orally to rats
[9] = Oral pharmacokinetics in the dog; format: in vivo
From the text: (§1) There is a marked food effect with absorption reduced by >50% in dogs after a meal.

[10] = test system: healthy subjects; assay: Safety in Phase 1 subjects; format: in vivo, human
From the text: These observations were considered related to antagonism of V2 receptors and not a safety concern. Vital signs (blood pressure and heart rate) were unaffected by YM087.

[11] = test system: AVP-induced dermal vasoconstriction; assay: AVP-induced dermal vasoconstriction in Phase 1 subjects; format: in vivo, human; conditions: subjects at 50 mg IV
[12] = test system: rats; assay: Reproductive performance and fertility studies in rats; format: in vivo
[13] = test system: rats; conditions: rat, in vivo, 2.5 mg/kg
[14] = test system: aquaretic action (V2 receptor antagonism); assay: Aquaretic action in normal subjects (V2 receptor antagonism); format: in vivo, human
[15] = Oral pharmacokinetics in the rat; format: in vivo
From the text: as §1

[16] = test system: dogs; conditions: dog, in vivo, 2 mg/kg
[17] = test system: rats; assay: Teratogenicity in rats; format: in vivo
[18] = test system: bacteria; assay: Mutagenicity in bacteria; format: cell-based
[19] = test system: human lymphocytes; assay: Clastogenicity in human lymphocytes in vitro; format: cell-based
[20] = test system: bone marrow of rats; assay: Clastogenicity in bone marrow of rats; format: in vivo
[21] = test system: urinary output (V2 antagonism); assay: Urinary output and osmolality in conscious dogs (V2 antagonism); format: in vivo
[22] = oral 20 mg, single dose combination

## Cc1nc2c([nH]1)-c1ccccc1N(C(=O)c1ccc(NC(=O)c3ccccc3-c3ccccc3)cc1)CC2 [YM087, N-[4-(2-methyl-4,5,6-tetrahydromidazo [4,5-d][1]benzazepin-6-ylcarbonyl)phenyl]biphenyl-2-carboxamide hydrochloride]
[1]; affected dogs, 13-week oral study
  peripheral blood counts: Decreased peripheral erythrocyte, leukocyte, and/or platelet counts
[1]; dogs
  reversibility of bone marrow and peripheral blood changes: reversible
[2]; human, plasma
  half-life: 4 to 5 h
[2]; human, plasma, oral
  bioavailability: 43 to 59%
[2]; human, plasma, po
  Tmax: ~1 h
[2]; human, plasma, po, 60 mg
  bioavailability: 44%
[2]; [22]
  effect of 0.5 mg IV digoxin on pharmacokinetics: not affected
  effect of 25 mg oral captopril on pharmacokinetics: not affected
[2]; repeated BID oral doses, 60 mg
  plasma levels after the second dose: unexpectedly high plasma levels
[3]
  teratogenicity: not teratogenic
[4]
  cardiac function: significantly improved the depressed cardiac function
  water diuresis: produced a water diuresis
[5]
  uterine weights: decreased at all doses
[6]
  ID50 (dose that reduced the AVP response by 50%): 0.026 mg/kg
[7]
  AVP-induced platelet aggregation: Inhibition of AVP-induced platelet aggregation
[8]
  ID50 (dose that reduced the AVP response by 50%): 0.32 mg/kg
[9]; in vivo, dogs, read-out: elimination half-life (converted)
  half-life: 2 h
[9]; oral
  time to peak concentrations: 1 h
[10]; approximately 250 subjects treated
  overall safety: no major safety concerns were identified
[10]; higher doses, related to V2 antagonism
  urinary and plasma osmolarity at higher doses: urinary osmolarity decreased and plasma osmolarity increased
[10]; human, in vivo
  biochemical or hematological laboratory parameters: No drug-related trend was observed
  other adverse events: flushes, a sensation of cold extremities, abdominal complaints, abnormal stools, syncope, dizziness, palpitations, and postural hypotension
  vital signs (blood pressure and heart rate): unaffected
[10]; one patient, 80 mg/day for 4 days
  serious event in patient with severe congestive heart failure: generalized tonic clonic seizure
[10]; one subject on placebo also affected
  number of subjects with minor reversible decreases in white blood cell count: Three
[10]; regardless of treatment association
  most frequent adverse events: mild or moderate thirst and mild headache
[11]
  AVP-induced dermal vasoconstriction: Total inhibition
[12]; females given 100 mg/kg orally for 2 weeks prior to mating with untreated males
  female fertility findings: reduced fertility index, increased implantation loss, and decreased live fetuses
[12]; male rats
  reproductive performance of male rats: did not affect
[13]
  toxicity in 4-week IV study: No toxicity was observed
[14]; 120 mg QD or 60 mg BID orally or 50 mg IV, normal subjects
  tolerability of aquaretic effects: too uncomfortable in normal subjects to be tolerable
[14]; IV 50 mg/day
  duration of increased urine production rate postdosing: ≤ 6 h
[14]; IV doses up to 250 μg/kg
  duration of increased urine production rate postdosing: up to 3 hours
[14]; IV, normal subjects
  dose at which aquaretic action with decrease in urine osmolarity starts: 0.05 mg/kg
[14]; oral, normal subjects
  dose at which aquaretic action with decrease in urine osmolarity starts: 15 mg
[15]; in vivo, rats, read-out: elimination half-life (converted)
  half-life: 1 h
[15]; oral
  time to peak concentrations: 0.5 h
[16]
  toxicity in 4-week IV study: No toxicity was observed
[17]
  teratogenicity: not teratogenic
[18]
  mutagenicity: not mutagenic
[19]
  clastogenicity: not clastogenic
[20]
  clastogenicity: not clastogenic
[21]; conscious dogs, oral 0.03 to 0.3 mg/kg, dose-related
  urinary output: increased urinary output
[21]; conscious dogs, oral 0.03 to 0.3 mg/kg, reduced from 1500
  urinary osmolality: < 100 mOsm/kg H2O
[21]; unlike furosemide
  effect on urinary sodium (Na) or potassium (K) excretion: little or no effect
